Test results from patent US5239084A, “Substituted aminoalkyl biphenyl compounds” (Hoffmann-La Roche Inc., priority 1990, dated 1993).
≈ marks a conversion by molar mass, not a printed value. Where “and” joins values, the source holds several entries; their conditions need not be identical. Equal entries are not always repeated. Structures can show the parent of a compound that is named as a salt. Where two headings read alike, the source gives them in different places.

Experiments:
[1] = molecular target: T1, 2,3-epoxysqualene-lanosterol cyclase (Candida albicans, UniProt Q04782); experiment: inhibition of 2,3-epoxysqualene-lanosterol cyclase from Candida albicans (cell-free extract, 14C-squalene epoxide); format: biochemical
T1 construct: there was obtained a cell-free extract (CFE) as the supernatant; endogenous in cells; host or cells: Candida albicans culture, protoplasts ruptured, cell-free extract (10000 g supernatant)
T1 sequence (Q04782 whole entry): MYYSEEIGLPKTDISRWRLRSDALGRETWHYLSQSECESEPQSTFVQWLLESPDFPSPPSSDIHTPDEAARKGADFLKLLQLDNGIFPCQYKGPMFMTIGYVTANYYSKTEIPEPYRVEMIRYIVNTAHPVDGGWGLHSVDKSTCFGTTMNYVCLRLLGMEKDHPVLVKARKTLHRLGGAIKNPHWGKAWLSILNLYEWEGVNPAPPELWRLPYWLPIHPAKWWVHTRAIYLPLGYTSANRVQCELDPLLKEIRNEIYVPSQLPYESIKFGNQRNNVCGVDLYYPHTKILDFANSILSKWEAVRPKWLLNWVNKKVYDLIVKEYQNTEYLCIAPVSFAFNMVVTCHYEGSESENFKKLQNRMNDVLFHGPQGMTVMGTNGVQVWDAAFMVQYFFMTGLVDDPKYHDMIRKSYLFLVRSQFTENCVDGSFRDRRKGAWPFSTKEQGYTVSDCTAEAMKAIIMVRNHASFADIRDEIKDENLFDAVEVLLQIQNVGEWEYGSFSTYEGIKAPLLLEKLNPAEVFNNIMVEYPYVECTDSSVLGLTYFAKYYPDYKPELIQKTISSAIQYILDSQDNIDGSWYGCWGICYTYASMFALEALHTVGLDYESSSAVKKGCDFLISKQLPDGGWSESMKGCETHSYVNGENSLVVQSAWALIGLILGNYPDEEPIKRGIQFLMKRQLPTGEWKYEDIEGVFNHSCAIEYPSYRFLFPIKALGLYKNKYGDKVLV

[2] = test system: C. albicans H12; experiment: agar dilution method, C. albicans H12; format: cell-based, Candida albicans
[3] = test system: C. albicans 3152; experiment: agar dilution method, C. albicans 3152; format: cell-based, Candida albicans; conditions: Candida albicans, 48 h, alone, 37° C., 2 days
[4] = test system: C. albicans H29; experiment: agar dilution method, C. albicans H29; format: cell-based, Candida albicans
[5] = test system: C. albicans B4; experiment: agar dilution method, C. albicans B4; format: cell-based, Candida albicans; conditions: for MIC: Candida albicans, B4, 48 h
[6] = test system: C. albicans B5; experiment: agar dilution method, C. albicans B5; format: cell-based, Candida albicans
[7] = test system: C. albicans 3153; experiment: agar dilution method, C. albicans 3153; format: cell-based, Candida albicans
[8] = cell-free extract, pH 6.9, 30° C., 1 hour, read-out: IC50 (converted)
[9] = in combination with compound 20
[10] = in combination with compound 14

With `CC(c1ccc(-c2ccc(C(=O)c3ccccc3)cc2)cc1)N(C)C` (racemic) [Compound 2, rac-4'-[1-(dimethylamino)ethyl]-4-biphenylyl phenyl ketone hydrochloride] the IC50 [1, 8] was 219 nM.
For `C=CCN(C)C(C)c1ccc(-c2ccc(C(=O)c3ccccc3)cc2)cc1` (racemic) [Compound 18, rac-4'-[1-(Allylmethylamino)ethyl]-4-biphenylyl phenyl ketone hydrochloride], the IC50 [1] was 90 nM.
`CN(C)Cc1ccc(-c2ccc(C(=O)c3ccccc3)cc2)cc1` [Compound 1, 4'-[(dimethylamino)methyl]-4-biphenylyl phenyl ketone hydrochloride] was tested, and the IC50 [1, 8] was 284 nM.
`CN(C)Cc1ccc(-c2ccc(C(=O)c3ccc(F)cc3)cc2)cc1` [Compound 3, 4'-[(Dimethylamino)methyl]-4-biphenyl p-fluorophenyl ketone hydrochloride] gave an IC50 [1, 8] of 300 nM.
`CN(C)Cc1ccc(-c2ccc(C(=O)c3ccc(Cl)cc3Cl)cc2)cc1` [Compound 4, 2,4-dichlorophenyl 4'-[(dimethylamino)methyl]-4-biphenyl ketone hydrochloride] was tested, and the IC50 [1, 8] was 200 nM.
With `CN(C)Cc1ccc(-c2ccc(C(=O)c3ccc([N+](=O)[O-])cc3)cc2)cc1` [Compound 5, 4'-[(Dimethylamino)methyl]-4-biphenylyl p-nitrophenyl ketone hydrochloride] the IC50 [1, 8] was 290 nM.
For `CN(C)Cc1ccc(-c2ccc(C(=O)c3ccc(Br)cc3)cc2)cc1` [Compound 6, p-Bromophenyl 4'-[(dimethylamino)methyl]-4-biphenylyl ketone hydrochloride], the IC50 [1, 8] was 102 nM.
`CN(C)Cc1ccc(-c2ccc(C(=O)c3ccc(Cl)cc3Cl)cc2Cl)cc1` [Compound 7] was tested, and the IC50 [1, 8] was 239 nM.
In the case of `CN(C)Cc1ccc(-c2ccc(C(=O)c3ccc([N+](=O)[O-])cc3Cl)cc2)cc1` [Compound 8, 2-Chloro-4-nitrophenyl 4'-[(dimethylamino)methyl]-4-biphenyl ketone hydrochloride], the IC50 [1, 8] is reported as 111 nM.
With `CN(C)C(C)(C)c1ccc(-c2ccc(C(=O)c3ccccc3)cc2)cc1` [Compound 9, 4'-[1-(dimethylamino)-1-methylethyl]-4-biphenylyl phenyl ketone hydrochloride] the IC50 [1, 8] was 2500 nM.
`CN(C)Cc1ccc(-c2ccc(C(=O)c3ccc(I)cc3)cc2)cc1` [Compound 10, 4'-[(Dimethylamino)methyl]-4-biphenylyl p-iodophenyl ketone hydrochloride] was tested, and the IC50 [1, 8] was 98.4 nM.
In the case of `CN(C)Cc1ccc(-c2ccc(C(=O)c3ccc(C#N)cc3)cc2)cc1` [Compound 11, p-[[(4'-[(Dimethylamino)methyl]-4-biphenylyl]carbonyl]-benzonitrile hydrochloride], the IC50 [1, 8] is reported as 170 nM.
`CN(C)Cc1ccc(-c2ccc(C(=O)c3cccc4ccccc34)cc2)cc1` [Compound 12, 4'-[(Dimethylamino)methyl]-4-biphenylyl 1-naphthyl ketone hydrochloride] showed an IC50 [1, 8] of 771 nM.
In the case of `CN(C)Cc1ccc(-c2ccc(C(=O)c3ccc4ccccc4c3)cc2)cc1` [Compound 13, 4'-[(Dimethylamino)methyl]-4-biphenylyl 2-naphthyl ketone hydrochloride], the IC50 [1, 8] is reported as 522 nM.
`C=CCN(C)Cc1ccc(-c2ccc(C(=O)c3ccc(F)cc3)cc2)cc1` [Compound 15, 4'-[(Allylmethylamino)methyl]-4-biphenylyl p-fluorophenyl ketone hydrochloride] was tested, and the IC50 [1] was 100 nM.
`C=CCN(C)Cc1ccc(-c2ccc(C(=O)c3ccc(Cl)cc3Cl)cc2)cc1` [Compound 16, 2,4-dichlorophenyl 4'-(allylmethylamino)-methyl]-4-biphenylyl ketone hydrochloride] showed an IC50 [1, 8] of 39 nM.
`C=CCN(C)Cc1ccc(-c2ccc(C(=O)c3ccc([N+](=O)[O-])cc3)cc2)cc1` [Compound 17] showed an IC50 [1, 8] of 41.4 nM.
Work on `C=CCN(C)Cc1ccc(-c2ccc(C(=O)c3ccc(C#N)cc3)cc2)cc1` [Compound 19, p-[[4'-[(Allylmethylamino)methyl]-4-biphenylyl]carbonyl]-benzonitrile hydrochloride] yielded an IC50 [1] of 109 nM.
For `C=CCN(C)Cc1ccc(-c2ccc(C(=O)c3ccc(Cl)cc3Cl)cc2Cl)cc1` [Compound 21], the IC50 [1, 8] was 58.5 nM.
`C=CCN(C)Cc1ccc(-c2ccc(C(=O)c3cccc4ccccc34)cc2)cc1` [Compound 22, 4'-[(Allylmethylamino)methyl]-4-biphenylyl 1-naphthyl ketone hydrochloride] showed an IC50 [1] of 434 nM.
Compound `C=CCN(C)Cc1ccc(-c2ccc(C(=O)c3ccc4ccccc4c3)cc2)cc1` [Compound 23, 4'-[(Allylmethylamino)methyl]-4-biphenylyl 2-naphthyl ketone hydrochloride] has an IC50 [1] of 409 nM.
With `C=CCN(C)Cc1ccc(-c2ccc(C(=O)c3ccc([N+](=O)[O-])cc3Cl)cc2)cc1` [Compound 24, 4'-[[(Allylmethylamino)methyl]-4-biphenylyl 2-chloro-4-nitrophenyl ketone hydrochloride] the IC50 [1, 8] was 26.1 nM.
With `CCN(C)Cc1ccc(-c2ccc(C(=O)c3ccccc3)cc2)cc1` [Compound 25, 4'-[Ethylmethylamino)methyl]-4-biphenylyl phenyl ketone hydrochloride] the IC50 [1, 8] was 137 nM.
`CNCc1ccc(-c2ccc(C(=O)c3ccccc3)cc2)cc1` [Compound 26, 4'-[(Methylamino)methyl]-4-biphenylyl phenyl ketone hydrochloride] showed an IC50 [1, 8] of 592 nM.
In the case of `CN(C)Cc1ccc(-c2ccc(C(=O)c3ccc(Br)cc3Br)cc2)cc1` [Compound 27], the IC50 [1, 8] is reported as 50.7 nM.
Compound `C=CCN(C)Cc1ccc(-c2ccc(C(=O)c3ccc(Br)cc3Br)cc2)cc1` [Compound 28] has an IC50 [1, 8] of 40.1 nM.
`COc1ccccc1C(=O)c1ccc(-c2ccc(CN(C)C)cc2)cc1` [Compound 29] gave an IC50 [1, 8] of 550 nM.
`CN(C)Cc1ccc(-c2ccc(C(=O)c3ccc(F)cc3F)cc2)cc1` [Compound 30] was tested, and the IC50 [1, 8] was 82.5 nM.
`C=CCN(C)Cc1ccc(-c2ccc(C(=O)c3ccc(F)cc3F)cc2)cc1` [Compound 31, 2,4-difluorophenyl 4'-[(allylmethylamino)methyl]-4-biphenylyl ketone] showed an IC50 [1] of 21.2 nM.
In the case of `Cc1ccccc1C(=O)c1ccc(-c2ccc(CN(C)C)cc2)cc1` [Compound 32], the IC50 ([1]; cell-free extract, pH 6.9, 30° C., 1 hour) is reported as 0/03.
Work on `C=CCN(C)Cc1ccc(-c2ccc(C(=O)c3ccccc3C)cc2)cc1` [Compound 33] yielded an IC50 [1, 8] of 33.8 nM.
`C=CCN(C)Cc1ccc(-c2ccc(C(=O)c3ccccc3C)cc2)cc1` [Compound 34] gave an IC50 [1, 8] of 50.6 nM.
Work on `CCCCCC(=O)c1ccc(-c2ccc(CN(C)C)cc2)cc1` [Compound 35, 4'-[(dimethylamino)-methyl]-4-biphenylyl pentyl ketone hydrochloride] yielded an IC50 [1, 8] of 89.6 nM.
With `CC(C)=CCCC(=O)c1ccc(-c2ccc(CN(C)C)cc2)cc1` [Compound 36, 4'-[(dimethylamino)methyl]-4-biphenylyl 4-methyl-3-pentenyl ketone hydrochloride] the IC50 [1, 8] was 8.38 nM.
For `CN(C)Cc1ccc(-c2ccc(C(=O)CCCCCCCCO)cc2)cc1` [Compound 37, 4'-[(dimethylamino)methyl]-4-biphenylyl 8-hydroxyoctyl ketone hydrochloride], the IC50 [1, 8] was 42.1 nM.
`C=CCN(C)Cc1ccc(-c2ccc(C(=O)CCCCC)cc2)cc1` [Compound 38, 4'-[(allylmethylamino)methyl]-4-biphenylyl pentyl ketone hydrochloride] gave an IC50 [1] of 62.6 nM.
For `C=CCN(C)Cc1ccc(-c2ccc(C(=O)CCC=C(C)C)cc2)cc1` [Compound 39, 4'-[(allylmethylamino)methyl]-4-biphenylyl 4-methyl-3-pentenyl ketone], the IC50 [1] was 25.9 nM.
`C=CCN(C)Cc1ccc(-c2ccc(C(=O)CCCCCCCCO)cc2)cc1` [Compound 40, 4'-[(allylmethylamino)methyl]-4-biphenylyl 8-hydroxyoctyl ketone fumarate] was tested, and the IC50 [1] was 17.8 nM.
`CC(=O)N1CCN(c2ccc(OCC3COC(Cn4ccnc4)(c4ccc(Cl)cc4Cl)O3)cc2)CC1` (stereo not drawn) [ketoconazole, reference compound] was tested, and the MIC ([2]; Candida albicans, H12, 48 h, alone, 37° C., 2 days) was 5 µg/mL (≈ 9.41 µM), the MIC alone ([2]; alone, 37° C., 2 days) was 10 µg/mL (≈ 18.8 µM) and the “MIC of sterol biosynthesis inhibitor in combination” value [2, 9] was 0.15 µg/mL and 0.075 µg/mL. For the same compound, the MIC [3] was 2.5 µg/mL (≈ 4.7 µM), the MIC ([4]; Candida albicans, H29, 48 h, alone, 37° C., 2 days) was 0.15 µg/mL (≈ 0.282 µM) and the “MIC of sterol biosynthesis inhibitor in combination” value [4, 10] was 0.019 µg/mL and 0.038 µg/mL. For the same compound, the “MIC of sterol biosynthesis inhibitor in combination” value [4, 9] was 0.019 µg/mL, the MIC ([5]; alone, 37° C., 2 days) was 2.5 µg/mL (≈ 4.7 µM) and the MIC alone ([5]; alone, 37° C., 2 days) was 5 µg/mL (≈ 9.41 µM). For the same compound, the “MIC of sterol biosynthesis inhibitor in combination” value [5, 10] was 0.075 µg/mL and 0.15 µg/mL, the “MIC of sterol biosynthesis inhibitor in combination” value [5, 9] was 0.075 µg/mL and the MIC ([6]; Candida albicans, B5, 48 h, alone, 37° C., 2 days) was 0.15 µg/mL (≈ 0.282 µM). The MIC alone ([6]; alone, 37° C., 2 days) was 0.3 µg/mL (≈ 0.565 µM), the “MIC of sterol biosynthesis inhibitor in combination” value [6, 10] was 0.019 µg/mL and 0.038 µg/mL and the “MIC of sterol biosynthesis inhibitor in combination” value [6, 9] was 0.019 µg/mL. The MIC ([7]; Candida albicans, 3153, 48 h, alone, 37° C., 2 days) was 2.5 µg/mL (≈ 4.7 µM) and the “MIC of sterol biosynthesis inhibitor in combination” value [7, 9] was 0.075 µg/mL.
With `CN(C/C=C/C#CC(C)(C)C)Cc1cccc2ccccc12` [terbinafine, reference compound] the “MIC of sterol biosynthesis inhibitor in combination” value [2, 10] was 1.5 µg/mL, the “MIC of sterol biosynthesis inhibitor in combination” value [2, 9] was 0.75 µg/mL and the “MIC of sterol biosynthesis inhibitor in combination” value [4, 10] was 3.0 µg/mL. For the same compound, the “MIC of sterol biosynthesis inhibitor in combination” value [4, 9] was 0.75 µg/mL, the MIC ([5]; alone, 37° C., 2 days) was 100 µg/mL (≈ 343 µM) and the “MIC of sterol biosynthesis inhibitor in combination” value [5, 10] was 3.0 µg/mL. For the same compound, the “MIC of sterol biosynthesis inhibitor in combination” value [5, 9] was 1.5 µg/mL, the “MIC of sterol biosynthesis inhibitor in combination” value [6, 10] was 3.0 µg/mL and the “MIC of sterol biosynthesis inhibitor in combination” value [6, 9] was 0.7 µg/mL. The “MIC of sterol biosynthesis inhibitor in combination” value [7, 10] was 3.0 µg/mL and 1.5 µg/mL and the “MIC of sterol biosynthesis inhibitor in combination” value [7, 9] was 1.50 µg/mL.
